Key:
[1] = molecular target: T1, NTPDase3 (Homo sapiens, UniProt O75355); assay: Stability to hydrolysis by human NTPDase3; type: in vitro ADME; settings: analogue 100 μM; activity with 100 μM ATP = 100%
T1 sequence (O75355 1-529): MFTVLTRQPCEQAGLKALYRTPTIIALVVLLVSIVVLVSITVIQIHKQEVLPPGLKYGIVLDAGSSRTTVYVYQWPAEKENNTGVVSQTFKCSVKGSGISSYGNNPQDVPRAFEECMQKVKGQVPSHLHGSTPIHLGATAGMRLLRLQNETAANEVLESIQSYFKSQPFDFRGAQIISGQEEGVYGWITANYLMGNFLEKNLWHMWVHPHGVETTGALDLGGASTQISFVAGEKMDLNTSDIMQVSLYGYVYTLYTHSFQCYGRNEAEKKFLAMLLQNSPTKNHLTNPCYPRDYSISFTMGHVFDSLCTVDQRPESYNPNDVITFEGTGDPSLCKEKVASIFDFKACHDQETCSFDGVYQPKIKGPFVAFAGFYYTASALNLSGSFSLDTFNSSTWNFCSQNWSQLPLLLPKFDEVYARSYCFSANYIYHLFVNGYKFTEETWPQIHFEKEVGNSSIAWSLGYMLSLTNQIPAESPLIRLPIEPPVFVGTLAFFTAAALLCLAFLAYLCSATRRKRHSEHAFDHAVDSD
Method: (§1) Uridine 5′-Pα,α-phosphorodithioate analogues, 9-12, were tested for their stability to degradation by NPP1 and NTPDases. These enzymes are involved in the metabolism of extracellular nucleotides. Analogues 9-12 were not hydrolyzed by hNPP1 (Table 2). […] Analogue 10 was hydrolyzed by hNTPDase1, -2 and -3 at 30-39% the rate of ATP and was slightly hydrolyzed by human NTPDase8 at 16% the rate of ATP.
(§2) Analogues 9-12 were incubated in the presence of the indicated ectonucleotidase at a concentration of 100 μM. The activity with 100 μM ATP was set as 100%, which was 329±108, 302±34, 263±51, 195±76 nmol of Pi·min−1·mg of protein−1 for NTPDase1, -2, -3 and -8, respectively, and 34±7 nmol for NPP1. Data presented are the mean±SEM of results from two experiments.

[2] = molecular target: T2, NTPDase2 (Homo sapiens, UniProt Q9Y5L3); assay: Stability to hydrolysis by human NTPDase2; type: in vitro ADME; settings: analogue 100 μM; activity with 100 μM ATP = 100%
T2 sequence (Q9Y5L3 1-495): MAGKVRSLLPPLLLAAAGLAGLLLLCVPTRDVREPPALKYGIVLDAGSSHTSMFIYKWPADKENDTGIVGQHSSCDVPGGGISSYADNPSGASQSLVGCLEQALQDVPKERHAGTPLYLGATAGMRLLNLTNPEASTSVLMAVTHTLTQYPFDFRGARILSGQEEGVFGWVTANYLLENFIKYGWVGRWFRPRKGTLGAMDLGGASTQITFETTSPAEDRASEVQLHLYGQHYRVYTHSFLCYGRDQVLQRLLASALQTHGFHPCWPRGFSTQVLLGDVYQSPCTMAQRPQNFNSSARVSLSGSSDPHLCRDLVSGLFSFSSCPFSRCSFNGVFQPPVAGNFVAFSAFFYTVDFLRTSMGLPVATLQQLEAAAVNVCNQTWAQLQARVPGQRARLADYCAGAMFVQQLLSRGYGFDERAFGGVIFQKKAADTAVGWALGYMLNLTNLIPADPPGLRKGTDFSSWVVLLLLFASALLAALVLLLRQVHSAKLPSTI
Method: as §1, §2

[3] = molecular target: T3, rat CD73 (Rattus norvegicus, UniProt P21588); assay: Inhibition of rat CD73, 5 μM [3H]AMP as substrate; type: biochemical; settings: 5 μM [3H]AMP as a substrate; n = 3
T3 sequence (P21588 29-551): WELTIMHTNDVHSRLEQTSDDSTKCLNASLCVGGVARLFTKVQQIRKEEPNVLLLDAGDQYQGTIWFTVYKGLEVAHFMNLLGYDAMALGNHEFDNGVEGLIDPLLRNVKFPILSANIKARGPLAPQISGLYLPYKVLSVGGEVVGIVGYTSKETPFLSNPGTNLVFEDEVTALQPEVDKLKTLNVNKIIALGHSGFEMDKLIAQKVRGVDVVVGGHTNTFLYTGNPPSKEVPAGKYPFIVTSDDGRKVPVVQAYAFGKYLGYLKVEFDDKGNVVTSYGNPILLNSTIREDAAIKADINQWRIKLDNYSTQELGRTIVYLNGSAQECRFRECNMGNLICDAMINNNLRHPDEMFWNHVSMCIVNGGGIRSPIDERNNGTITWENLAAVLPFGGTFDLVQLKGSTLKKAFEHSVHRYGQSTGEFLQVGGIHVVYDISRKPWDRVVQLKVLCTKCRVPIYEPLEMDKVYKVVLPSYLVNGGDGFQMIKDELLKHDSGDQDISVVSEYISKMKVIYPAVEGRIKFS

[4] = molecular target: P2Y6R (Homo sapiens, UniProt Q15077); assay: Calcium mobilization in 1321N1 astrocytoma cells expressing human P2Y6R; type: cell-based; parameters: expressed in transfected cells; host or cells: 1321N1 astrocytoma cells (stably transfected)
P2Y6R, sequence (Q15077 whole entry): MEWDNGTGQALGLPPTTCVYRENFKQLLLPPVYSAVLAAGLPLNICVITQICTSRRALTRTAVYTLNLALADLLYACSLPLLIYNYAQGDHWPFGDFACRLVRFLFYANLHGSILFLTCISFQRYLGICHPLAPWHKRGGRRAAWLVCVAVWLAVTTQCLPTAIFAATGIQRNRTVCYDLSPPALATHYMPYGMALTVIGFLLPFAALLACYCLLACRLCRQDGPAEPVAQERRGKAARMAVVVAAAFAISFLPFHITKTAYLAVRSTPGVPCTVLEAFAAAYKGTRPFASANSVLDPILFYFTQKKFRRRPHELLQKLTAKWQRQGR
Method: Given the structural resemblance of 106-109 to the natural ligands of P2Y receptors, adenine and uracil nucleotides as natural substrates, were assessed for agonist potency on the human P2Y1, P2Y2, P2Y4, and P2Y6 receptor. To evaluate NPP1 selectivity of analogs 106-109, they were tested for their ability to activate of the uridine-nucleotide sensitive human recombinant P2Y1,2,4,6-receptors. The agonist potencies of this series of nucleotide analogues on the Gq protein-coupled human P2Y1R, P2Y2R, P2Y4R, and P2Y6R was determined by assessing its ability to induce calcium mobilization in stably transfected 1321N1 astrocytoma cells (Table 8). The nucleotide analogues were found in calcium mobilization assays to activate the P2Y2R with mid-micromolar potency.

SMILES	Relative activity (%) ± SEM of ATP hydrolysis, NTPDase3 [1] [%]	Relative activity (%) ± SEM of ATP hydrolysis, NTPDase2 [2] [%]	% inhibition ± SEM, rat CD73 [3]	% activation at 10 μM, P2Y6 [4] [%]
O=c1ccn([C@@H]2O[C@H](COP(=S)(S)OP(=O)(O)OP(=O)(O)O)[C@@H](O)[C@H]2O)c(=O)[nH]1 (stereo partly shown) [Analogue 10]	39.7 ± 1.9	32.0 ± 3.3		
Nc1ncnc2c1ncn2COCCOP(=S)(S)OP(=O)(O)O (stereo not shown) [compound 106]			n.i.d	−2 ± 1
